These results are taken from patent US20210253557A1, “SUBSTITUTED TRIAZOLE DERIVATIVES AND USES THEREOF” (Bayer Pharma Aktiengesellschaft, priority 2017, published 2021).

pIC50: −log10 of the molar value. Where a name gives a salt, the structure may show the parent alone.

The target in assay [1] is T1, human V1a receptor (Homo sapiens, UniProt P37288).
T1 construct: expressed in transfected cells; host or cells: CHO K1 (ATCC), also stably transfected with a modified aequorin
The experiment in a line: Cellular in vitro assay for determining vasopressin receptor activity (V1a, aequorin luminescence). Type of assay: cell-based. The settings on record: for pIC50: CHO cell line transfected with the human V1a receptor, [Arg8]-vasopressin at EC50 concentration, read-out: IC50 hV1a; for ratio IC50 hV2/hV1a: selectivity ratio of IC50 hV2 to IC50 hV1a. The method, then: (§1) B-1. Cellular In Vitro Assay for Determining Vasopressin Receptor Activity
(§2) The identification of agonists and antagonists of the V1a and V2 vasopressin receptors from humans, rats and dogs as well as the quantification of the activity of the compounds of the invention is carried out using recombinant cell lines. These cell lines originally derive from a hamster's ovary epithelial cell (Chinese Hamster Ovary, CHO K1, ATCC: American Type Culture Collection, Manassas, Va. 20108, USA). The test cell lines constitutively express the human, rat or dog V1a or V2 receptors. In case of the Gαq-coupled V1a receptors, cells are also stably transfected with a modified form of the calcium-sensitive photoproteins aequorin (human and rat V1a) or obelin (dog V1a), which, after reconstitution with the cofactor coelenterazine, emit light when there are increases in free calcium concentrations [Rizzuto R, Simpson A W, Brini M, Pozzan T, Nature 358, 325-327 (1992); Illarionov B A, Bondar V S, Illarionova V A, Vysotski E S, Gene 153 (2), 273-274 (1995)]. The resulting vasopressin receptor cells react to stimulation of the recombinantly expressed V1a receptors by intracellular release of calcium ions, which can be quantified by the resulting photoprotein luminescence. The Gs-coupled V2 receptors are stably transfected into cell lines expressing the gene for firefly luciferase under control of a CRE-responsible promoter. Activation of V2 receptors induces the activation of the CRE-responsive promoter via cAMP increase, thereby inducing the expression of firefly luciferase. The light emitted by photoproteins of V1a cell lines as well as the light emitted by firefly luciferase of V2 cell lines corresponds to the activation or inhibition of the respective vasopressin receptor. The bioluminescence of the cell lines is detected using a suitable luminometer [Milligan G, Marshall F, Rees S, Trends in Pharmacological Sciences 17, 235-237 (1996)].
Vasopressin V1a receptor cell lines:
On the day before the assay, the cells are plated out in culture medium (DMEM/F12, 2% FCS, 2 mM glutamine, 10 mM HEPES, 5 μg/ml coelenterazine) in 384-well microtiter plates and kept in a cell incubator (96% humidity, 5% v/v CO2, 37° C.). On the day of the assay, test compounds in various concentrations are placed for 10 minutes in the wells of the microtiter plate before the agonist [Arg^8]-vasopressin at EC50 concentration is added. The resulting light signal is measured immediately in a luminometer.
(§3) Table 1A below lists individual IC50 values for the compounds of the invention (including racemic mixtures as well as separated enantiomers) that were obtained from cell lines transfected with the human V1a or V2 receptor: […]

Assay [2] addresses T2, human V2 receptor (Homo sapiens, UniProt P30518).
T2 construct: expressed in transfected cells; host or cells: CHO K1 (ATCC) expressing firefly luciferase under a CRE-responsive promoter
The experiment in a line: Cellular in vitro assay for determining vasopressin receptor activity (V2, CRE-luciferase). Type of assay: cell-based. The settings on record: CHO cell line transfected with the human V2 receptor; [Arg8]-vasopressin at EC50 concentration; read-out: IC50 hV2. As for the experimental part: as §1, §2
Vasopressin V2 receptor cell lines:
On the day before the assay, the cells are plated out in culture medium (DMEM/F12, 2% FCS, 2 mM glutamine, 10 mM HEPES) in 384-well microtiter plates and kept in a cell incubator (96% humidity, 5% v/v CO2, 37° C.). On the day of the assay, test compounds in various concentrations and the agonist [Arg^8]-vasopressin at EC50 concentration are added together to the wells, and plates are incubated for 3 hours in a cell incubator. Upon addition of the cell lysis reagent Triton™ and the substrate luciferin, luminescence of firefly luciferase is measured in a luminometer.
as §3

T1 sequence (P37288 whole entry): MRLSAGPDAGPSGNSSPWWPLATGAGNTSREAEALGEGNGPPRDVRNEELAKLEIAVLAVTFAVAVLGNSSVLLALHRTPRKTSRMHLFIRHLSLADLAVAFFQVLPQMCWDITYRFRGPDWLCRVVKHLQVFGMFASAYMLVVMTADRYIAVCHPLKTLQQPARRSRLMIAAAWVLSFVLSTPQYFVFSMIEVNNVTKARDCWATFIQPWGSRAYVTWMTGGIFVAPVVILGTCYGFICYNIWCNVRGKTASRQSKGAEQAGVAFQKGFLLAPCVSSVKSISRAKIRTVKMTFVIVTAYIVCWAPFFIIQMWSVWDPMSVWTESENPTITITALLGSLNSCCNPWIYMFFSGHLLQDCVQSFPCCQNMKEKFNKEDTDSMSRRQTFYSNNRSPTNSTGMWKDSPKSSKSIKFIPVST
T2 sequence (P30518 whole entry): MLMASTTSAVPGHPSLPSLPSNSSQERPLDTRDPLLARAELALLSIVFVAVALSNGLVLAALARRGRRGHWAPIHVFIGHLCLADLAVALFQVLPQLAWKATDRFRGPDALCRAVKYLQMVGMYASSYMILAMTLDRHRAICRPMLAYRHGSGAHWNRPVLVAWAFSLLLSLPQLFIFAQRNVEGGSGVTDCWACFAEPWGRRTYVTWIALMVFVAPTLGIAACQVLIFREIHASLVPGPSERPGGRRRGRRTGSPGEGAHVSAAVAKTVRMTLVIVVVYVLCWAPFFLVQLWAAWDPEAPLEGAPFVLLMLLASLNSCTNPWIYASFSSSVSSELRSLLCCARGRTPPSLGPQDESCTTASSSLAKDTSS

Take `CC(C)(C)OCC(NC(=O)C(F)(F)F)c1nc(Cn2nc(-c3ccc(Cl)cc3)n(C[C@H](O)C(F)(F)F)c2=O)nn1-c1ccccc1Cl` (mixture of isomers) [Example 94, N-{2-tert-Butoxy-1-[1-(2-chlorophenyl)-3-({3-(4-chlorophenyl)-5-oxo-4-[(2S)-3,3,3-trifluoro-2-hydroxypropyl]-4,5-dihydro-1H-1,2,4-triazol-1-yl}methyl)-1H-1,2,4-triazol-5-yl]ethyl}-2,2,2-trifluoroacetamide]: the values for the pIC50 in assay [1] and in assay [2] were 8.96 and 7.56, respectively. The “ratio IC50 hV2/hV1a” value in assay [1] was found to be 25.0.

Regarding `O=C(NC(CO)c1nc(Cn2nc(-c3ccc(Cl)cc3)n(C[C@H](O)C(F)(F)F)c2=O)nn1-c1ccccc1Cl)C(F)(F)F` (mixture of isomers) [Example 95, N-{1-[1-(2-Chlorophenyl)-3-({3-(4-chlorophenyl)-5-oxo-4-[(2S)-3,3,3-trifluoro-2-hydroxypropyl]-4,5-dihydro-1H-1,2,4-triazol-1-yl}methyl)-1H-1,2,4-triazol-5-yl]-2-hydroxyethyl}-2,2,2-trifluoroacetamide], in assay [1], the pIC50 is 8.68 and the “ratio IC50 hV2/hV1a” value is 8.6. Moreover, in assay [2], the pIC50 is 7.74.

`O=C1NC(c2nc(Cn3nc(-c4ccc(Cl)cc4)n(C[C@H](O)C(F)(F)F)c3=O)nn2-c2ccccc2Cl)CO1` (mixture of isomers) [Example 98, 5-(4-Chlorophenyl)-2-({1-(2-chlorophenyl)-5-[2-oxo-1,3-oxazolidin-4-yl]-1H-1,2,4-triazol-3-yl}methyl)-4-[(2S)-3,3,3-trifluoro-2-hydroxypropyl]-2,4-dihydro-3H-1,2,4-triazol-3-one]: the values for the pIC50 in assay [1] and in assay [2] were 9.21 and 8.22, respectively. For the same compound, in assay [1], the “ratio IC50 hV2/hV1a” value was found to be 9.8.

As to `CN1C(=O)CCC1c1nc(Cn2nc(-c3ccc(Cl)cc3)n(C[C@H](O)C(F)(F)F)c2=O)nn1-c1ncccc1Cl` (mixture of isomers) [Example 103, 5-(4-Chlorophenyl)-2-({1-(3-chloropyridin-2-yl)-5-[(2R)-1-methyl-5-oxopyrrolidin-2-yl]-1H-1,2,4-triazol-3-yl}methyl)-4-[(2S)-3,3,3-trifluoro-2-hydroxypropyl]-2,4-dihydro-3H-1,2,4-triazol-3-one], the values for the pIC50 in assay [1] and in assay [2] were 8.84 and 7.58, respectively. Besides, the “ratio IC50 hV2/hV1a” value in assay [1] was found to be 18.3.

Regarding `CC(N)c1nc(Cn2nc(-c3ccc(Cl)cc3)n(C[C@H](O)C(F)(F)F)c2=O)nn1-c1ncccc1Cl` (mixture of isomers) [Example 106, 2-({5-[1-Aminoethyl]-1-(3-chloropyridin-2-yl)-1H-1,2,4-triazol-3-yl}methyl)-5-(4-chlorophenyl)-4-[(2S)-3,3,3-trifluoro-2-hydroxypropyl]-2,4-dihydro-3H-1,2,4-triazol-3-one], in assay [1], the pIC50 is 8.78 and the “ratio IC50 hV2/hV1a” value was 11.2. Also, the pIC50 in assay [2] is 7.73.

As to `CC(=O)NC(C)c1nc(Cn2nc(-c3ccc(Cl)cc3)n(C[C@H](O)C(F)(F)F)c2=O)nn1-c1ncccc1Cl` (mixture of isomers) [Example 107, N-{1-[3-({3-(4-Chlorophenyl)-5-oxo-4-[(2S)-3,3,3-trifluoro-2-hydroxypropyl]-4,5-dihydro-1H-1,2,4-triazol-1-yl}methyl)-1-(3-chloropyridin-2-yl)-1H-1,2,4-triazol-5-yl]ethyl}acetamide], in assay [1], the pIC50 was 7.87 and the “ratio IC50 hV2/hV1a” value was determined as 17.8. Also, the pIC50 in assay [2] was 6.62.

With `O=C1NC(c2nc(Cn3nc(-c4ccc(Cl)cc4)n(C[C@H](O)C(F)(F)F)c3=O)nn2-c2ncccc2Cl)CO1` (mixture of isomers) [Example 112, 5-(4-Chlorophenyl)-2-({1-(3-chloropyridin-2-yl)-5-[2-oxo-1,3-oxazolidin-4-yl]-1H-1,2,4-triazol-3-yl}methyl)-4-[(2S)-3,3,3-trifluoro-2-hydroxypropyl]-2,4-dihydro-3H-1,2,4-triazol-3-one], the pIC50 in assay [1] is 8.08; in assay [2], 6.68. Also, the “ratio IC50 hV2/hV1a” value in assay [1] is 25.0.

As to `O=C1NC(c2nc(Cn3nc(-c4ccc(Cl)cc4)n(C[C@H](O)C(F)(F)F)c3=O)nn2-c2ncccc2OC(F)(F)F)CO1` (mixture of isomers) [Example 117, 5-(4-Chlorophenyl)-2-({5-[2-oxo-1,3-oxazolidin-4-yl]-1-[3-(trifluoromethoxy)pyridin-2-yl]-1H-1,2,4-triazol-3-yl}methyl)-4-[(2S)-3,3,3-trifluoro-2-hydroxypropyl]-2,4-dihydro-3H-1,2,4-triazol-3-one], in assay [1], the pIC50 was 7.67 and the “ratio IC50 hV2/hV1a” value is given as 21.9. The pIC50 in assay [2] is 6.33.

In the case of `CC(=O)NC(CO)c1nc(Cn2nc(-c3ccc(Cl)cc3)n(C[C@H](O)C(F)(F)F)c2=O)nn1-c1ncccc1OC(F)(F)F` (mixture of isomers) [Example 120, N-[1-{3-({3-(4-Chlorophenyl)-5-oxo-4-[(2S)-3,3,3-trifluoro-2-hydroxypropyl]-4,5-dihydro-1H-1,2,4-triazol-1-yl}methyl)-1-[3-(trifluoromethoxy)pyridin-2-yl]-1H-1,2,4-triazol-5-yl}-2-hydroxyethyl]acetamide], the pIC50 in assay [1] was 7.90; in assay [2], 6.39. Besides, in assay [1], the “ratio IC50 hV2/hV1a” value turned out to be 32.8.

As for `CNc1ccncc1-n1nc(Cn2nc(-c3ccc(Cl)cc3)n(C[C@H](O)C(F)(F)F)c2=O)nc1C(C)N` (mixture of isomers) [Example 124, 2-({5-[1-Aminoethyl]-1-[4-(methylamino)pyridin-3-yl]-1H-1,2,4-triazol-3-yl}methyl)-5-(4-chlorophenyl)-4-[(2S)-3,3,3-trifluoro-2-hydroxypropyl]-2,4-dihydro-3H-1,2,4-triazol-3-one hydrochloride], the pIC50 in assay [1] was 7.47; in assay [2], 7.13. The “ratio IC50 hV2/hV1a” value in assay [1] is 2.2.

As for `CNc1ccncc1-n1nc(Cn2nc(-c3ccc(Cl)cc3)n(C[C@H](O)C(F)(F)F)c2=O)nc1C(C)NC(C)=O` (mixture of isomers) [Example 125, N-[1-{3-({3-(4-Chlorophenyl)-5-oxo-4-[(2S)-3,3,3-trifluoro-2-hydroxypropyl]-4,5-dihydro-1H-1,2,4-triazol-1-yl}methyl)-1-[4-(methylamino)pyridin-3-yl]-1H-1,2,4-triazol-5-yl}ethyl]acetamide hydrochloride], in assay [1], the negative-log IC50 (pIC50) is 7.19 and the “ratio IC50 hV2/hV1a” value worked out at 9.3. Besides, the pIC50 in assay [2] is 6.23.

Regarding `CC(N)c1nc(Cn2nc(-c3ccc(Cl)cc3)n(C[C@H](O)C(F)(F)F)c2=O)nn1-c1ncccn1` (mixture of isomers) [Example 128, 2-({5-[1-Aminoethyl]-1-(pyrimidin-2-yl)-1H-1,2,4-triazol-3-yl}methyl)-5-(4-chlorophenyl)-4-[(2S)-3,3,3-trifluoro-2-hydroxypropyl]-2,4-dihydro-3H-1,2,4-triazol-3-one hydrochloride], in assay [1], the pIC50 was 7.02 and the “ratio IC50 hV2/hV1a” value worked out at 22.8. Moreover, the pIC50 in assay [2] was 5.67.

For the compound `CC(=O)NC(C)c1nc(Cn2nc(-c3ccc(Cl)cc3)n(C[C@H](O)C(F)(F)F)c2=O)nn1-c1ncccn1` (mixture of isomers) [Example 129, N-{1-[3-({3-(4-Chlorophenyl)-5-oxo-4-[(2S)-3,3,3-trifluoro-2-hydroxypropyl]-4,5-dihydro-1H-1,2,4-triazol-1-yl}methyl)-1-(pyrimidin-2-yl)-1H-1,2,4-triazol-5-yl]ethyl}acetamide], in assay [1], the pIC50 was 6.72 and the “ratio IC50 hV2/hV1a” value stood at 8.2. Also, the negative logarithm of the IC50 (pIC50) in assay [2] is 5.81.
